Assay results published in US6451335B1, “Formulations and methods for providing prolonged local anesthesia” (Euro-Celtique S.A., priority 1998, dated 2002).
Structures can show the parent of a compound that is named as a salt.

Columns and labels:
rat sciatic nerve [1] = assay: Duration of anesthesia of bupivacaine microspheres (LAB) with co-injected additives, hotplate foot withdrawal; type: in vivo; settings: LAB 150 mg/kg perineural
Description: In this example, a large number of pharmaceutical agents were tested for activity in augmenting the duration of local anesthetic activity. Bupivacaine-containing microspheres at about 75% loading, by weight, were injected perineurally into rat sciatic nerve at a dose of 150 mg/kg (weight microspheres/weight rat) to dose of approximately 50 mg/nerve. For the injections, needle placement adjacent to the target nerve was optimized by intermittent electrical e stimulation of the target nerve (via the injection needle) with low amplitude current to produce limb flexion. For the injections, the microspheres were suspended in a carrier vehicle suitable for injection. While any pharmaceutically acceptable carrier vehicle is acceptable, for these experiments the carrier vehicle was 1% sodium carboxymethylcellulose and 1% Tween 80 in water.
Compounds to be tested were co-injected with bupivacaine containing microspheres (i.e., mixed as additives into the carrier vehicle) in a range of concentrations. Results are expressed as percent increase in duration relative to non-augmented durations that were obtained in the same animal model.
The duration of anesthesia was measured by the hotplate foot withdrawal method described above in Example 10 and refers to the time necessary for the animal to recover from maximal nerve latency (12 sec) to a latency of 7 seconds, approximately 50% recovery. The results are tabulated in Table 3 below as percent of control.

rat sciatic nerve [2] = assay: as above; type: in vivo; settings: read-out: Duration Anesthesia As Percent of Control
rat sciatic nerve [3] = assay: Rat sciatic nerve model, sensory testing (hotplate hindpaw withdrawal latency); type: in vivo; settings: for duration of sensory block: augmenting agent with bupivacaine-loaded microspheres vs contralateral side with bupivacaine-loaded microspheres without the agent
Description: (§1) The duration of local anesthesia induced by the bupivacaine-loaded microspheres, prepared from PLGA 65:35, with and without the co-administration of an augmenting agent, is tested in a rat sciatic nerve model for localized local anesthesia. […] The latency test determines the time, in seconds, before a rat withdraws its hindpaw from a hotplate set to a safe but uncomfortable temperature (56° C.).
(§2) Selected rats are injected with a solution containing a suspension of bupivacaine-loaded microspheres plus co-administered augmenting agent on one side and injected with a control on the contralateral side so that each rat serves as its own control. Each injection is adjacent to the sciatic nerve. The controls are bupivacaine-loaded microspheres without co-administered augmenting agent and microspheres without any bupivacaine.
As previously discussed, the degree of sensory local anesthesia is measured by determining the time or latency, in seconds, before each rat withdraws its hindpaw from a hotplate set to a safe but uncomfortable temperature. Maximum sciatic nerve sensory blockade is defined as having a latency of about 12 seconds or higher.
Twenty-four rats each receive an injection of bupivacaine-loaded controlled release microspheres into the left or right side, co-administered with a dextran containing injection solution. The contralateral side receive either bupivacaine-loaded microspheres at the same dose, or unloaded microspheres co-administered with a dextran injection solution.
Sensory hot plate latency is measured from the time of the injections until the latency declined to under 2 seconds.

rat sciatic nerve [4] = assay: Rat sciatic nerve model, motor testing (4-point scale); type: in vivo; settings: augmenting agent with bupivacaine-loaded microspheres vs contralateral side with bupivacaine-loaded microspheres without the agent
Description: as §1, §2
The degree of motor blockade is measured by scoring the appearance of the affected foot for the signs of loss of motor tone. The assessment is conducted as follows using a 4-point scale based on visual observation: (1) normal appearance, (2) intact dorsiflexion of foot with an impaired ability to splay toes when elevated by the tail, (3) toes and foot remained plantar flexed with no splaying ability, and (4) loss of dorsiflexion, flexion of toes, and impairment of gait.
Motor blockade is scored until the hind paws of motor blockades rats returned to a normal appearance.
Sensory and motor testing is conducted according to sections A and B, respectively, of EXAMPLE 10, above. Using the experimental protocol of section C of EXAMPLE 10, 24 rats are tested.
Sensory and motor testing is conducted according to sections A and B, respectively, of EXAMPLE 10, above.

superficial radial nerve = assay: Local anesthesia to pin prick after injection around the superficial radial nerve in normal volunteers; type: in vivo, humans; settings: n=6; EDLA 3 ml (37.5 mg total) or aqueous bupivacaine HCl 50 mg, single injection
Description: Finally, the two compartment release of bupivacaine from EDLA results in rapid onset and prolonged duration of local anesthesia in humans. Normal volunteers (n=6) received a single injection of 3 ml EDLA (37.5 mg total) or aqueous bupivacaine HCl (50 mg) around the superficial radial nerve. Onset of local anesthesia to pin prick over the anatomical snuff box was <3 hours with aqueous bupivacaine with duration of action 6-8 hours. Onset of local anesthesia with EDLA was <3 hours with duration of action 48-72 hours.

[5] = Microdialysis of bupivacaine at i.m. injection site in quadriceps muscle; type: in vivo, Sprague-Dawley rat; settings: 3 mg i.m., quadriceps femoris
Description: To determine whether bupivacaine is released from EDLA in two phases in-vivo, bupivacaine HCl and EDLA was injected into the quadriceps muscles of rats in which microdialysis catheters had been previously placed. Bupivacaine HCl was injected i.m. into the quadriceps femoris of a Sprague-Dawley rat around the area of a microdialysis catheter. […] This rapid escape is consistent with the very short duration of anesthetic action aqueous bupivacaine has in this model. Diffusion of bupivacaine, quantitated by HPLC, was from a single compartment that followed first order kinetics, k=0.25±0.04 min^−1. (SS=3.613). […] The first compartment was apparently identical to the mechanism of escape of soluble bupivacaine HCl, since the rate constant was essentially identical (k=0.22/minute). […] Calibration was determined in vivo by delivery of a 10 ug/ml solution of bupivacaine. […] Excellular bupivacaine was measured in the dialysate every 10 minutes. In vivo extracelluar concentration was determined from the dialysate concentration by factoring in the microdialysis probe recovery which had been previously determined. […]

[6] = immediate release vasoconstrictor, at best; cited from earlier work

Compound | Duration Anesthesia As Percent of Control (rat sciatic nerve [1]; % Additive Conc. 0.05) | Duration Anesthesia As Percent of Control (rat sciatic nerve [1]; % Additive Conc. 0.5) | further results
O=C1NC(=O)C(c2ccccc2)(c2ccccc2)N1 [5,5-diphenylhydantoin] | – | – | Duration Anesthesia As Percent of Control (rat sciatic nerve [1]; % Additive Conc. 0.11): 152% of Control; Duration Anesthesia As Percent of Control (rat sciatic nerve [1]; % Additive Conc. 1.09): 138% of Control
C[C@]12CC[C@@H](O)C[C@@H]1CC[C@@H]1[C@@H]2C(=O)C[C@@]2(C)[C@H]1CC[C@]2(O)C(=O)CO [Allotetrahydrocortisone, allotetrahydrocortisone] | 100% of Control | 117% of Control | –
CC(=O)[C@H]1CC[C@H]2[C@@H]3CC[C@H]4C[C@H](O)CC[C@]4(C)[C@H]3C(=O)C[C@]12C [Alphaxalone] | 169% of Control | 123% of Control | –
Nc1ccncc1 [Aminopyridine (4-AP), Aminopyridine] | 77% of Control | – | Duration Anesthesia As Percent of Control (rat sciatic nerve [1]; % Additive Conc. 0.11): 92% of Control; Duration Anesthesia As Percent of Control (rat sciatic nerve [1]; % Additive Conc. 1.09): 131% of Control
Cc1c(N(C)C)c(=O)n(-c2ccccc2)n1C [Aminopyrine] | 146% of Control | 62% of Control | –
NC(=NCc1ccccc1)NC(=O)c1nc(Cl)c(N)nc1N [Benzamil] | 83% of Control | 154% of Control | –
Clc1cccc(Cl)c1N=C1NCCN1 [Clonidine] | 122% of Control | 71% of Control | –
COc1cc2c(c(OC)c1OC)-c1ccc(OC)c(=O)cc1[C@@H](NC(C)=O)CC2 [Colchicine] | – | – | response vs control in vivo at 0.1 % (rat sciatic nerve [2]; % Additive Conc. 0.1, Placebo (in place of LAB)): 0%; response vs control in vivo at 10 % (rat sciatic nerve [2]; % Additive Conc. 10, no LAB): 0%; Duration Anesthesia As Percent of Control (rat sciatic nerve [1]; % Additive Conc. 0.01): 104% of Control; Duration Anesthesia As Percent of Control (rat sciatic nerve [1]; % Additive Conc. 1.0): 277% of Control; Duration Anesthesia As Percent of Control (rat sciatic nerve [1]; % Additive Conc. 10): toxic
CN1C(=O)CN=C(c2ccccc2)c2cc(Cl)ccc21 [Diazepam] | 231% of Control | 203% of Control | –
CC1=NS(=O)(=O)c2cc(Cl)ccc2N1 [Diazoxide] | 138% of Control | 109% of Control | –
Nc1cc(N2CCCCC2)nc(N)[n+]1[O-] [Minoxidil] | 54% of Control | 218-265% of Control | –
C[C@@H]1O[C@@H](O[C@H]2C[C@@H](O)[C@]3(CO)[C@H]4[C@H](O)C[C@]5(C)[C@@H](C6=CC(=O)OC6)CC[C@]5(O)[C@@H]4CC[C@]3(O)C2)[C@H](O)[C@H](O)[C@H]1O [Ouabain] | 154% of Control | 178% of Control | –
CC(=O)O[C@H]1C(=O)[C@@]2(C)[C@H]([C@H](OC(=O)c3ccccc3)[C@]3(O)C[C@H](OC(=O)[C@H](O)[C@@H](NC(=O)c4ccccc4)c4ccccc4)C(C)=C1C3(C)C)[C@]1(OC(C)=O)CO[C@@H]1C[C@@H]2O [Taxol] | – | 82% of Control | Duration Anesthesia As Percent of Control (rat sciatic nerve [1]; % Additive Conc. 0.11): 104% of Control; Duration Anesthesia As Percent of Control (rat sciatic nerve [1]; % Additive Conc. 1.09): 108% of Control
CC[N+](CC)(CC)CC [Tetraethylammonium] | 95% of Control | 123% of Control | –
COc1ccc2c(c1)CC[C@@H]1[C@@H]2CC[C@]2(C)[C@@H](NCCCCCCN3C(=O)C=CC3=O)CC[C@@H]12 [U-73, 122, 1[6-[[17-beta-3-methoxyestra-1,3,5(10)-triene-17-yl]amino]hexl]1-H-pyrrole-2,5-dione] | 106% of Control | 115% of Control | –
CCCC(CCC)C(=O)O [Valproic Acid] | 152% of Control | 138% of Control | –
CC[C@]1(O)C[C@@H]2CN(CCc3c([nH]c4ccccc34)[C@@](C(=O)OC)(c3cc4c(cc3OC)N(C)[C@H]3[C@@](O)(C(=O)OC)[C@H](OC(C)=O)[C@]5(CC)C=CCN6CC[C@]43[C@@H]65)C2)C1 [Vinblastine] | 158% of Control | – | Duration Anesthesia As Percent of Control (rat sciatic nerve [1]; % Additive Conc. 0.11): 37% of Control; Duration Anesthesia As Percent of Control (rat sciatic nerve [1]; % Additive Conc. 1.09): 40% of Control
CC(N)Cc1ccccc1 (centres unmarked) [amphetamine] | – | – | duration of sensory block (rat sciatic nerve [3]): significantly longer duration of sensory block; duration of motor block (rat sciatic nerve [4]): significantly increased duration of motor block
CCCCN1CCCCC1C(=O)Nc1c(C)cccc1C (centres unmarked) [bupivacaine HCl] | – | – | duration of action of local anesthesia (superficial radial nerve): 6 to 8 h; k, first order escape of bupivacaine from i.m. injection site (single compartment) [5]: 0.25 ± 0.04 min⁻¹
CN[C@@H](C)[C@H](O)c1ccccc1 [ephedrine] | – | – | duration of sensory block (rat sciatic nerve [3]): significantly longer duration of sensory block; duration of motor block (rat sciatic nerve [4]): significantly increased duration of motor block
CNC[C@H](O)c1ccc(O)c(O)c1 [epinephrine] | – | – | prolongation of local anesthetic activity [6]: ≤ 1 h; duration of sensory block (rat sciatic nerve [3]): significantly longer duration of sensory block; duration of motor block (rat sciatic nerve [4]): significantly increased duration of motor block
Dextran | – | – | duration of sensory block (rat sciatic nerve [3]): significantly longer duration of sensory block; sensory blockade (rat sciatic nerve [3]; unloaded microspheres with dextran alone): no sensory blockade; Duration Anesthesia As Percent of Control (rat sciatic nerve [1]; % Additive Conc. 3): 46-144% of Control; duration of motor block (rat sciatic nerve [4]): significantly increased duration of motor block
